Tests used:
BT474 = BT474 cell assay (EC50); type: cell-based; settings: Homo sapiens, BT-474; BT474 cells
mTOR = mTOR (Homo sapiens (Human), UniProt P42345); assay: mTOR kinase activity assay (phosphorylation status of mTOR substrate 4E-BP1; TR-FRET); type: biochemical; settings: GFP-4E-BP1 substrate, 8 μM ATP
Experimental: mTOR Kinase Activity Assay
(Phosphorylation Status of mTOR Substrate 4E-BP1; TR-FRET)
The mTOR kinase TR-FRET assay utilizes a physiologically relevant protein substrate for mTOR (4E-BP1, labeled with an acceptor fluorophore (Green Fluorescent Protein) and paired with a corresponding Tb-labeled phospho-specific antibody.
The assay itself is divided into two phases: the reaction phase and the detection phase. In the reaction phase, all components required for the kinase reaction are added to the well, including the labeled protein substrate. The reaction is allowed to incubate for 60 minutes. After the reaction, EDTA is added to stop the kinase reaction, and terbium-labeled antibody is added to bind phosphorylated product. Because the terbium chelate is stable at the EDTA concentrations used to stop a kinase assay, the antibody and EDTA can be pre-mixed prior to addition to minimize pipetting steps. Binding of the terbium labeled antibody to the fluorophore-labeled phosphorylated product brings the terbium and GFP into proximity, resulting in an increase in TR-FRET. In the presence of an inhibitor, formation of phosphorylated product is reduced, and the TR-FRET value is decreased.
• GFP-4E-BP1 substrate; Invitrogen order no. PV4759 • Lanthascreen Tb-anti-p4E-BP1 (pThr46) Antibody Kit; Invitrogen order no. PV4758 • FRAP1 (mTOR) kinase; Invitrogen order no.
400 nM GFP-4E-BP1, 8 μM ATP, ˜150 ng/mL mTOR, 50 mM HEPES pH 7.5, 0.01% Polysorbate 20, 1 mM EGTA, 10 mM MnCl2, and variable amounts of test compounds.
Note: Thaw and keep mTOR, the substrate, ATP, and the antibody on ice prior to making working dilutions. Working dilutions of these components can be kept at room temperature for short periods of time the day of use. • 1. Add 2 ml of 5× Assay Buffer to 8 ml water to prepare 10 ml of 1× Assay Buffer, wherein the concentration of 1× Assay Buffer is 50 mM HEPES pH 7.5, 0.01% Polysorbate 20, 1 mM EGTA, and 10 mM MnCl2. • 2. Prepare Antibody/EDTA Solution by first adding 2.75 μl of Tb-anti p4E-BP1 Antibody to 2397 μl of LanthaScreen™ TR-FRET Dilution Buffer. Then, add 100 μl of 0.5 M EDTA. • 3. […] Then, add 1.6 μl of mTOR (0.45 mg/mL). • 4. Prepare ATP Solution by adding 3.2 μl of 10 mM ATP to 1997 μl of 1× Assay Buffer. Serial Dilution of Inhibitors (16 Point Curve)
Inhibitors are serially diluted in DMSO, then diluted to a 4× working concentration with 1× Assay Buffer. • 1. Dispense 40 μl of DMSO to two adjacent columns of a 96 well plate per compound (e.g. columns 1 and 2). • 2. Add 10 μl of inhibitor stock (10 mM) to the first well of the first column (A1) and mix. • 3. Remove 10 μl from A1 and transfer to the adjacent well in the next column (B1) and mix. • 4. Remove 10 μl from B1 and transfer to the next well in the first column (B2) and mix. • 5. […] Remove 4 μl of diluted compounds and add to 96 μl of 1× Assay Buffer in a 96-well plate making 4× compound dilutions. Kinase Reaction • 1. Add 2.5 μl of 4X compound dilutions to a 384-well plate. • 2. […] Preincubate for […] at RT (shaker). • 5. Add 5 μl of ATP Solution to all wells to start reactions. • 6. Shake the assay plate on a plate shaker for 30 seconds. • 7. Incubate the assay plate for one hour at room temperature (20-25° C.). Stop Step and Fluorescence Detection • 1. Add 10 μl of Antibody/EDTA Solution to each well in columns 1-9. • 2. Shake the assay plate on a plate shaker for 30 seconds. • 3. Incubate the assay plate for one hour at room temperature (20-25° C.). • 4. Measure the GFP (FRET) and terbium (reference) emission signals on a fluorescence plate reader (e.g. Perkin Elmer Envision). Data Analysis • 1. Calculate the emission ratio for each sample by dividing the GFP (FRET) signal by the terbium (reference) signal. • 2.

PI3Kalpha = PI3Kalpha (Homo sapiens (Human), UniProt P42336); assay: Inhibition of PI3Kalpha-induced PIP-2 phosphorylation (filter-binding assay); type: biochemical; settings: 33P-ATP
Experimental: Inhibition of PI3Kalpha-Induced PIP-2 Phosphorylation
Method Type: Filter-Binding-Assay
Aliquoted in desired amounts and stored at −80° C. Final assay concentration 25 ng/well.

[1] = test system: PC3 (human prostate carcinoma cell line) cells; assay: PC3 proliferation test; type: cell-based; settings: PC-3, 72 h, 3 days incubation, DNA dye fluorescence
Experimental: The test is based on measurement of cellular DNA content via fluorescent dye binding. Because cellular DNA content is highly regulated, it is closely proportional to cell number. The extent of proliferation is determined by comparing cell counts for samples treated with drugs with untreated controls.
PC3 (human prostate carcinoma cell line) cells are sown in microtitre plates and incubated overnight in culture medium at 37° C. and 5% CO2. The test substances are diluted stepwise and added to the cells such that the total volume is 200 μL/well. Cells to which diluent, but not substance, is added serve as controls.

Sequence of mTOR (P42345 1360-2549): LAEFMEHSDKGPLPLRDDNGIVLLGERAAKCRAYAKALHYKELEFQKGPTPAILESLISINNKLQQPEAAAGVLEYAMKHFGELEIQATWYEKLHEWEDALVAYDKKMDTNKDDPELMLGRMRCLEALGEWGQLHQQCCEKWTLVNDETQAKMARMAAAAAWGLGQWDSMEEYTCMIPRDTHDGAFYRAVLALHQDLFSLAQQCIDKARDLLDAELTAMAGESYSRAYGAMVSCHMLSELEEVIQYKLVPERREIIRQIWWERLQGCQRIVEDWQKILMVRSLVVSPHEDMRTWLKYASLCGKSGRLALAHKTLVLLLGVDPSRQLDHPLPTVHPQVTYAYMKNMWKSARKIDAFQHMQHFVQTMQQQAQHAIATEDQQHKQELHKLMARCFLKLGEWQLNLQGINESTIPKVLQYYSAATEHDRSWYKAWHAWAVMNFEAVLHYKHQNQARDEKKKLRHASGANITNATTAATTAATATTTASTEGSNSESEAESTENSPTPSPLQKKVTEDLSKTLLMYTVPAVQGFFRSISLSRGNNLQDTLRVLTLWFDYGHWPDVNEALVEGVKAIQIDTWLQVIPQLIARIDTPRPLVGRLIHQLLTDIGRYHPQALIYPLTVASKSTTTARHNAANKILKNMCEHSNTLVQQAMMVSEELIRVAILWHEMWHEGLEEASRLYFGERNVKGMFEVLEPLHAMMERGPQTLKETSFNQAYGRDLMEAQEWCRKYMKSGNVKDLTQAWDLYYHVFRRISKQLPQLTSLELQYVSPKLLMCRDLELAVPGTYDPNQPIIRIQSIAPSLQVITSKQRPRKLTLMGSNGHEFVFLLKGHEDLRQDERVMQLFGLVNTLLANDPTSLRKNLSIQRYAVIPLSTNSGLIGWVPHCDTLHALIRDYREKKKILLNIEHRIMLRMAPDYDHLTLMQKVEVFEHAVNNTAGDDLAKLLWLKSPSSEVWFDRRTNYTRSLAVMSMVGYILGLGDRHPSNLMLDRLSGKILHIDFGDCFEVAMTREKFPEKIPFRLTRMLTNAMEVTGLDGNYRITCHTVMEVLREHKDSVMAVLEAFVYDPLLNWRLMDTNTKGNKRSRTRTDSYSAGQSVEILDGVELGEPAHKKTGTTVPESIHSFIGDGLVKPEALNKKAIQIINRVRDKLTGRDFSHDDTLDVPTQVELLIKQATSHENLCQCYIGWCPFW
Sequence of PI3Kalpha (P42336 whole entry, species assumed): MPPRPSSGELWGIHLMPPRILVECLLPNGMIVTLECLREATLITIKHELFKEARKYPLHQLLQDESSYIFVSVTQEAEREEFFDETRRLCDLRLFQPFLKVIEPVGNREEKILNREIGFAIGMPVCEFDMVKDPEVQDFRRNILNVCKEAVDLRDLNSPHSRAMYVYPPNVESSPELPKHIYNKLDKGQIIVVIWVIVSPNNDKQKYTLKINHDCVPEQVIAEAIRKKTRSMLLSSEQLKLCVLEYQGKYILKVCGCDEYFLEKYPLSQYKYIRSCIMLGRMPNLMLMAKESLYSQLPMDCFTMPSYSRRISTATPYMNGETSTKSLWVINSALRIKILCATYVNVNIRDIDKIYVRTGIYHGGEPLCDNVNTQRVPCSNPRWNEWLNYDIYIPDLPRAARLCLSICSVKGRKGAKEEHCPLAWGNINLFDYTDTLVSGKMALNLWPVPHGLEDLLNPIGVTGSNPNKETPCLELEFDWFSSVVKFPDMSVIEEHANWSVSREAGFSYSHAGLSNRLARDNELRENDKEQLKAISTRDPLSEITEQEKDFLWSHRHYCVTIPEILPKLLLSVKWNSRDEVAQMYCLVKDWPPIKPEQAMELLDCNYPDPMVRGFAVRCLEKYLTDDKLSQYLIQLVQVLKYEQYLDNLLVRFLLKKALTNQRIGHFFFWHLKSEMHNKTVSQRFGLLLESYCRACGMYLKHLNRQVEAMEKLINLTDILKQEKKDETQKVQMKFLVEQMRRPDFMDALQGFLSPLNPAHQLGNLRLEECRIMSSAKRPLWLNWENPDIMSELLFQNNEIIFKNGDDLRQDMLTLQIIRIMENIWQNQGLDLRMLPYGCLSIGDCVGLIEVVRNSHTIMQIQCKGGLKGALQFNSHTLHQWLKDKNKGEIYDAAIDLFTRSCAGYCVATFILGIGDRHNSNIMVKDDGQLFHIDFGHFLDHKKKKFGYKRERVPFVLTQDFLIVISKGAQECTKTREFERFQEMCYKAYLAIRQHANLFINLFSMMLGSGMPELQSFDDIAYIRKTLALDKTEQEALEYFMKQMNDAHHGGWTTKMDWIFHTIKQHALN
Sequence of PI3Kalpha (P27986 whole entry partner, species assumed): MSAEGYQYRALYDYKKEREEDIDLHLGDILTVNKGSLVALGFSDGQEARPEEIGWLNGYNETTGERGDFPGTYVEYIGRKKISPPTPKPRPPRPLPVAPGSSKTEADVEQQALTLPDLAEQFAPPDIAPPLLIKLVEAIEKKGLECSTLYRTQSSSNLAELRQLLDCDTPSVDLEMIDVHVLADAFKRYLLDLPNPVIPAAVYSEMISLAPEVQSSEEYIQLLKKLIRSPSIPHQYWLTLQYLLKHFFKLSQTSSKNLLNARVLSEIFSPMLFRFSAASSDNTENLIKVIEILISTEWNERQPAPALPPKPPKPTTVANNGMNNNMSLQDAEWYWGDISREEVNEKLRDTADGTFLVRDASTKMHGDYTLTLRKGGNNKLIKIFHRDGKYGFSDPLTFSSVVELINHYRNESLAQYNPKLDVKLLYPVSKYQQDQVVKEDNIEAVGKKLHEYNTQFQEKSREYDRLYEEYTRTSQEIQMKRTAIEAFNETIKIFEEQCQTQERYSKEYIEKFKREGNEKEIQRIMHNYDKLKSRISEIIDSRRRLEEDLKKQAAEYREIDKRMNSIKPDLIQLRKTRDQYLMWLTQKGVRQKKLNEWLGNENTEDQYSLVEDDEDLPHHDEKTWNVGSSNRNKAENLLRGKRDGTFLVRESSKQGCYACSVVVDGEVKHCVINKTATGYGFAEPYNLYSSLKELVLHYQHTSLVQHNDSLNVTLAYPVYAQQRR

SMILES | EC50 (BT474) [nM] | IC50 (mTOR) [nM] | IC50 PI3Ka (PI3Kalpha) [nM] | EC50 [1] [nM]
CCc1ncnc(N2CCN(CCNS(C)(=O)=O)CC2)c1C#Cc1ccc(N)nc1 [Example H-14] | 63 | 18 | 60 | 
CCc1ncnc(N2CCN(c3ccncc3)CC2)c1C#Cc1ccc(N)nc1 [Example H-22] | 194 | 49 | 229 | 
CCc1ncnc(N2CCC3(CCNC3=O)CC2)c1C#Cc1ccc(N)nc1 [Example B-85] |  | 30 | 95 | 153
Cc1ncnc(N2CCNC(=O)CC2)c1C#Cc1ccc(N)nc1 [Example B-10] |  | 41 | 93 | 437
CCc1ncnc(N2CCN(S(C)(=O)=O)CC2)c1C#Cc1ccc(N)nc1 [Example B-43] |  | 16 | 88 | 139
Cc1ncnc(N2CCN(C(=O)c3ccno3)CC2)c1C#Cc1ccc(N)nc1 [Example G-9] |  | 55 | 39 | 310
CCc1ncnc(N2CCOCC2)c1C#Cc1ccc(N)nc1 [Example B-57] |  | 93 | 46 | 119
COCCN1CCN(c2ncnc(C)c2C#Cc2ccc(N)nc2)CC1 [Example B-2] |  | 32 | 145 | 301
CCc1ncnc(N2CCC(NC(C)=O)CC2)c1C#Cc1ccc(N)nc1 [Example B-21] |  | 19 | 83 | 162
CCc1ncnc(N2CCC(OC)CC2)c1C#Cc1ccc(NC)nc1 [Example B-86] |  | 9 | 94 | 115
Cc1ccc(C(=O)N2CCN(c3ncnc(C)c3C#Cc3ccc(N)nc3)CC2)o1 [Example G-10] |  | 60 | 25 | 221
CCc1ncnc(N2CCC(O)CC2)c1C#Cc1ccc(NC)nc1 [Example B-87] |  | 20 | 76 | 104
CCNC(=O)CC1CCN(c2ncnc(C)c2C#Cc2ccc(N)nc2)CC1 [Example E-5] |  | 58 | 38 | 171
CCc1ncnc(N2CCC3(CCN(C(=O)NC)CC3)CC2)c1C#Cc1ccc(N)nc1 [Example G-13] |  | 35 | 50 | 53
CCc1ncnc(N2CCC(COC)CC2)c1C#Cc1ccc(N)nc1 [Example B-39] |  | 19 | 87 | 50
CCc1ncnc(N2CCC(O)(Cc3ccccc3)CC2)c1C#Cc1ccc(N)nc1 [Example B-17] |  | 74 | 115 | 129
Cc1ncnc(N2CCC3(CCNC3=O)CC2)c1C#Cc1ccc(N)nc1 [Example B-84] |  | 19 | 32 | 126
Cc1ncnc(N2CCC(O)(c3ccccc3)CC2)c1C#Cc1ccc(N)nc1 [Example B-27] |  | 23 | 22 | 56
Cc1ncnc(N2CCC(CNC(=O)CC3CCCC3)CC2)c1C#Cc1ccc(N)nc1 [Example F-3] |  | 16 | 39 | 335
Cc1ncnc(N2CCC(O)C(C)C2)c1C#Cc1ccc(N)nc1 (stereo not drawn) [Example B-67] |  | 43 | 90 | 174
Cc1ncnc(N2CCC(O)(Cc3ccccc3)CC2)c1C#Cc1ccc(N)nc1 [Example B-28] |  | 50 | 70 | 195

SMILES | EC50 (BT474) [nM] | IC50 (mTOR) [nM] | IC50 PI3Ka (PI3Kalpha) [nM] | EC50 [1] [nM]
CC(=O)NCC1CCN(c2ncnc(C)c2C#Cc2ccc(N)nc2)CC1 [Example F-1] |  | 15 | 36 | 135
Cc1ncnc(N2CCC(CCO)CC2)c1C#Cc1ccc(N)nc1 [Example B-30] |  | 9 | 14 | 49
CCc1ncnc(N2CCN(C3CC3)CC2)c1C#Cc1ccc(N)nc1 [Example B-51] |  | 43 | 86 | 129
Cc1ncnc(N2CCOCC2)c1C#Cc1ccc(N)nc1 [Example B-4] |  | 38 | 37 | 319
CCc1ncnc(N2CCC(C(F)(F)F)CC2)c1C#Cc1ccc(N)nc1 [Example B-41] |  | 9 | 201 | 19
COCCNC(=O)CC1CCN(c2ncnc(C)c2C#Cc2ccc(N)nc2)CC1 [Example E-4] |  | 144 | 66 | 300
CCc1ncnc(N2CCC(OCCOC)CC2)c1C#Cc1ccc(N)nc1 [Example B-37] |  | 36 | 89 | 148
CCc1ncnc(N2CCN(C(=O)C3CC3)CC2)c1C#Cc1ccc(N)nc1 [Example G-4] |  | 113 | 46 | 206
CCc1ncnc(N2CCCC(CO)C2)c1C#Cc1ccc(C)nc1 (stereo not drawn) [Example B-71] |  | 108 | 90 | 388
CCc1ncnc(N2CCC(C)(O)CC2)c1C#Cc1ccc(N)nc1 [Example B-47] |  | 5 | 36 | 46
CCc1ncnc(N2CCOC(C)(C)C2)c1C#Cc1ccc(N)nc1 [Example B-50] |  | 30 | 49 | 56
CCc1ncnc(N2CCNC(=O)CC2)c1C#Cc1ccc(N)nc1 [Example B-54] |  | 14 | 133 | 211
CCc1ncnc(N2CCC(C)(O)CC2)c1C#Cc1ccc(C)nc1 [Example B-73] |  | 30 | 84 | 160
Cc1ncnc(N2CCN(C3CC3)CC2)c1C#Cc1ccc(N)nc1 [Example B-5] |  | 10 | 58 | 118
CCc1ncnc(N2CCN(C(=O)c3ccco3)CC2)c1C#Cc1ccc(N)nc1 [Example G-7] |  | 60 | 37 | 197
CCc1ncnc(N2CCC(O)(C(C)C)CC2)c1C#Cc1ccc(N)nc1 [Example B-63] |  | 0.61 | 15 | 8
CCc1ncnc(N2CCCC(NC(C)=O)C2)c1C#Cc1ccc(N)nc1 (stereo not drawn) [Example B-20] |  | 16 | 167 | 158
Cc1ncnc(N2CCn3c(C)cnc3C2)c1C#Cc1ccc(N)nc1 [Example B-76] |  | 97 | 60 | 233
CCc1ncnc(N2CCC(O)(C(F)(F)F)CC2)c1C#Cc1ccc(C)nc1 [Example B-31] |  | 37 | 172 | 80
CCc1ncnc(N2CCN(C)CC2)c1C#Cc1ccc(N)nc1 [Example B-56] |  | 57 | 1551 | 268
CCc1ncnc(N2CCC3(CCN(C)C3=O)CC2)c1C#Cc1ccc(N)nc1 [Example B-77] |  | 8 | 67 | 43

Reference: patent US8618111B2, “5-alkynyl-pyrimidines” (Boehringer Ingelheim International GmbH, priority 2010, dated 2013)
